Results as given in patent publication US8987287B2, “Spirocyclic morphinans and their use” (Purdue Pharma L.P., priority 2012, dated 2015).

Tests used:
[1] = biological target: κ opioid receptor (Homo sapiens (Human), UniProt P41145); assay: κ-opioid receptor [35S]GTPγS functional assay, U-2 OS cells; assay type: biochemical; conditions: for Emax: relative to U69,593, U-2 OS cells
Experimental: κ-Opioid Receptor Functional Assay Procedures: Functional [^35S]GTPγS binding assays were conducted as follows. κ opioid receptor membrane solution was prepared by sequentially adding final concentrations of 0.026 μg/μl κ membrane protein (in-house), 10 μg/mL saponin, 3 μM GDP and 0.20 nM [^35S]GTPγS to binding buffer (100 mM NaCl, 10 mM MgCl2, 20 mM HEPES, pH 7.4) on ice. The prepared membrane solution (190 μl/well) was transferred to 96-shallow well polypropylene plates containing 10 μl of 20× concentrated stock solutions of agonist prepared in DMSO. Plates were incubated for 30 min at a temperature of about 25° C. with shaking. Reactions were terminated by rapid filtration onto 96-well Unifilter GF/B filter plates (Perkin Elmer, Shelton, Conn.) using a 96-well tissue harvester (Packard) and followed by three filtration washes with 200 μl ice-cold binding buffer (10 mM NaH2PO4, 10 mM Na2HPO4, pH 7.4). Filter plates were subsequently dried at 50° C. for 2-3 hours. Fifty μl/well scintillation cocktail (Perkin Elmer, Shelton, Conn.) was added and plates were counted in a Packard Top-Count for 1 min/well.
κ-Opioid Receptor Functional Data: κ GTP EC50 is the concentration of a compound providing 50% of the maximal response for the compound at a κ receptor.
κ GTP Emax (%) is the maximal effect elicited by a compound relative to the effect elicited by U69,593.
(§1) The following TABLE 3 provides results on the activity response of certain Compounds of the Invention at the μ- and κ-opioid receptors determined as described above using U-2 OS cells.

[2] = biological target: μ-opioid receptor (Homo sapiens (Human), UniProt P35372); assay: μ-opioid receptor [35S]GTPγS functional assay, U-2 OS cells; assay type: biochemical; conditions: for Emax: relative to DAMGO, U-2 OS cells
Experimental: μ-Opioid Receptor Functional Assay Procedures: [^35S]GTPγS functional assays were conducted using freshly thawed μ-receptor membranes prepared in-house from a cell line expressing recombinant μ opioid receptor in a HEK-293, CHO or U-2 OS cell background, or purchased from a commercial source (Perkin Elmer, Shelton, Conn.; or DiscovRx, Fremont, Calif.). Assay reactions were prepared by sequentially adding the following reagents to binding buffer (100 mM NaCl, 10 mM MgCl2, 20 mM HEPES, pH 7.4) on ice (final concentrations indicated): membrane protein (0.026 mg/mL), saponin ([…]), GDP ([…]) and [^35S]GTPγS (0.20 nM; Perkin Elmer, Shelton, Conn.). The prepared membrane solution (190 μl/well) was transferred to 96-shallow well polypropylene plates containing 10 μl of 20× concentrated stock solutions of the agonist [D-Ala^2, N-methyl-Phe^4 Gly-ol^5]-enkephalin (DAMGO) prepared in dimethyl sulfoxide (DMSO). Plates were incubated for 30 min at about 25° C. with shaking. Reactions were terminated by rapid filtration onto 96-well Unifilter GF/B filter plates (Perkin Elmer, Shelton, Conn.) using a 96-well tissue harvester (Perkin Elmer, Shelton, Conn.) followed by three filtration washes with 200 μl of ice-cold wash buffer (10 mM NaH2PO4, 10 mM Na2HPO4, pH 7.4). Filter plates were subsequently dried at 50° C. for 2-3 hours. BetaScint scintillation cocktail (Perkin Elmer, Shelton, Conn.) was added (50 μl/well) and plates were counted using a Packard Top-Count for 1 min/well. Data were analyzed using the sigmoidal dose-response curve fitting functions in GraphPad PRISM v. 3.0, or an in-house function for non-linear, sigmoidal dose-response curve-fitting.
μ-Opioid Receptor Functional Data: μ GTP EC50 is the concentration of a compound providing 50% of the maximal response for the compound at a μ-opioid receptor.
μ GTP Emax (%) is the maximal effect elicited by a compound relative to the effect elicited by DAMGO, a standard μ agonist. Generally, the μ GTP Emax (%) value measures the efficacy of a compound to treat or prevent pain or other Conditions.
as §1

Structure (SMILES): COc1ccc2c(c1)[C@]13CCN(CCC(F)(F)F)[C@H](C2)[C@]1(O)CC[C@@]1(C3)NC(=O)NC1=O [Compound 17, (4bR,4′S,8aS,9R)-8a-hydroxy-3-methoxy-11-(3,3,3-trifluoropropyl)-5,7,8,8a,9,10-hexahydrospiro[9,4b-(epiminoethano)phenanthrene-6,4′-imidazolidine]-2′,5′-dione]
- EC50 [1]: > 20000 nM
- Emax [1]: 83.7 ± 6.69%
- EC50 [2]: > 20000 nM
- Emax [2]: 18.5 ± 6.14%

Structure (SMILES): COc1ccc2c(c1)[C@]13CCN(CCc4ccccc4)[C@H](C2)[C@]1(O)CC[C@@]1(C3)NC(=O)NC1=O [Compound 20, (4bR,4′S,8aS,9R)-8a-hydroxy-3-methoxy-11-phenethyl-5,7,8,8a,9,10-hexahydrospiro[9,4b-(epiminoethano)phenanthrene-6,4′-imidazolidine]-2′,5′-dione]
- EC50 [1]: > 20000 nM
- Emax [1]: 75.7 ± 11.5%
- EC50 [2]: 664 ± 113 nM
- Emax [2]: 105 ± 1.23%

Structure (SMILES): CCN1CC[C@]23C[C@]4(CC[C@@]2(O)[C@H]1Cc1ccc(OC)cc13)NC(=O)NC4=O [Compound 15, (4bR,4′S,8aS,9R)-11-ethyl-8a-hydroxy-3-methoxy-5,7,8,8a,9,10-hexahydrospiro[9,4b-(epiminoethano)phenanthrene-6,4′-imidazolidine]-2′,5′-dione]
- EC50 [1]: > 20000 nM
- Emax [1]: 65.3 ± 7.86%
- EC50 [2]: > 20000 nM
- Emax [2]: 8%

Structure (SMILES): CCN1C(=O)N(CC)[C@]2(CC[C@@]3(O)[C@H]4Cc5ccc(O)cc5[C@@]3(CCN4CC3CC3)C2)C1=O [Compound 46, (4S,4b′R,8a′S,9′R)-11′-(cyclopropylmethyl)-1,3-diethyl-3′,8a′-dihydroxy-8′,8a′,9′,10′-tetrahydro-5′H,7′H-spiro[imidazolidine-4,6′-[9,4b](epiminoethano)phenantrene]-2,5-dione]
- EC50 [1]: 1.57 ± 0.19 nM
- Emax [1]: 96.7 ± 3.67%
- EC50 [2]: 1.74 ± 0.22 nM
- Emax [2]: 10.7 ± 0.33%

Structure (SMILES): COc1ccc2c(c1)[C@]13CCN(CCCc4ccccc4)[C@H](C2)[C@]1(O)CC[C@@]1(C3)NC(=O)NC1=O [Compound 26, (4bR,4′S,8aS,9R)-8a-hydroxy-3-methoxy-11-(3-phenylpropyl)-5,7,8,8a,9,10-hexahydrospiro[9,4b-(epiminoethano)phenanthrene-6,4′-imidazolidine]-2′,5′-dione]
- EC50 [1]: > 20000 nM
- Emax [1]: 63 ± 8.72%
- EC50 [2]: > 20000 nM
- Emax [2]: 26.7 ± 11.7%

Structure (SMILES): CN1CC[C@]23C[C@@]4(CC[C@@]2(O)[C@H]1Cc1ccc(O)cc13)C(=O)NC(=O)N4C [Compound 70, (4S,4b′R,8a′S,9′R)-3′,8a′-dihydroxy-3,11′-dimethyl-8′,8a′,9′,1′-tetrahydro-5′H,7′H-spiro[imidazolidine-4,6′-[9,4b](epiminoethano)phenantrene]-2,5-dione]
- EC50 [1]: 322 ± 28.1 nM
- Emax [1]: 118 ± 9.61%
- EC50 [2]: 23.4 ± 2.03 nM
- Emax [2]: 99 ± 1.53%

Structure (SMILES): CC(C)CCN1CC[C@]23C[C@]4(CC[C@@]2(O)[C@H]1Cc1ccc(O)cc13)NC(=O)NC4=O [Compound 28, (4bR,4′S,8aS,9R)-3,8a-dihydroxy-11-isopentyl-5,7,8,8a,9,10-hexahydrospiro[9,4b-(epiminoethano)phenanthrene-6,4′-imidazolidine]-2′,5′-dione]
- EC50 [1]: 604 ± 112 nM
- Emax [1]: 88 ± 4.36%
- EC50 [2]: 154 ± 20.1 nM
- Emax [2]: 113 ± 2.78%

Structure (SMILES): O=C1NC(=O)[C@@]2(CC[C@@]3(O)[C@H]4Cc5ccc(O)cc5[C@@]3(CCN4CCC(F)(F)F)C2)N1 [Compound 33, (4bR,4′S,8aS,9R)-3,8a-dihydroxy-11-(3,3,3-trifluoropropyl)-5,7,8,8a,9,10-hexahydrospiro[9,4b-(epiminoethano)phenanthrene-6,4′-imidazolidine]-2′,5′-dione]
- EC50 [1]: 393 ± 13.5 nM
- Emax [1]: 98.3 ± 1.45%
- EC50 [2]: 272 ± 18 nM
- Emax [2]: 39.7 ± 1.86%

Structure (SMILES): O=C1NC(=O)[C@@]2(CC[C@@]3(O)[C@H]4Cc5ccc(O)cc5[C@@]3(CCN4CC(F)(F)F)C2)N1 [Compound 32, (4bR,4′S,8aS,9R)-3,8a-dihydroxy-11-(2,2,2-trifluoroethyl)-5,7,8,8a,9,10-hexahydrospiro[9,4b-(epiminoethano)phenanthrene-6,4′-imidazolidine]-2′,5′-dione]
- EC50 [1]: 523 ± 180 nM
- Emax [1]: 104 ± 1.2%
- EC50 [2]: > 20000 nM
- Emax [2]: 1.5%

Structure (SMILES): CCN1C(=O)N[C@]2(CC[C@@]3(O)[C@H]4Cc5ccc(O)cc5[C@@]3(CCN4CC3CC3)C2)C1=O [Compound 45, (4S,4b′R,8a′S,9′R)-11′-(cyclopropylmethyl)-1-ethyl-3′,8a′-dihydroxy-8′,8a′,9′,10′-tetrahydro-5′H,7′H-spiro[imidazolidine-4,6′-[9,4b](epiminoethano)phenantrene]-2,5-dione]
- EC50 [1]: 4.34 ± 0.74 nM
- Emax [1]: 96.3 ± 1.33%
- EC50 [2]: 6.47 ± 0.69 nM
- Emax [2]: 45.9 ± 3.04%

Structure (SMILES): O=C1NC(=O)[C@@]2(CC[C@@]3(O)[C@H]4Cc5ccc(O)cc5[C@@]3(CCN4CC3CC3)C2)N1Cc1ccccc1 [Compound 67, (4bR,4′S,8aS,9R)-3′-benzyl-11-(cyclopropylmethyl)-3,8a-dihydroxy-5,7,8,8a,9,10-hexahydrospiro[9,4b-(epiminoethano)phenanthrene-6,4′-imidazolidine]-2′,5′-dione]
- EC50 [1]: 28.4 ± 8.48 nM
- Emax [1]: 115 ± 4.84%
- EC50 [2]: 9.38 ± 0.76 nM
- Emax [2]: 20%

Structure (SMILES): CCN1C(=O)NC(=O)[C@@]12CC[C@@]1(O)[C@H]3Cc4ccc(O)cc4[C@@]1(CCN3C)C2 [Compound 69, (4S,4b′R,8a′S,9′R)-3-ethyl-3′,8a′-dihydroxy-11′-methyl-8′,8a′,9′,10′-tetrahydro-5′H,7′H-spiro[imidazolidine-4,6′-[9,4b](epiminoethano)phenantrene]-2,5-dione]
- EC50 [1]: 866 ± 94.6 nM
- Emax [1]: 110 ± 8.5%
- EC50 [2]: 43.6 ± 2.97 nM
- Emax [2]: 97.3 ± 1.45%

Structure (SMILES): O=C1NC(=O)[C@@]2(CC[C@@]3(O)[C@H]4Cc5ccc(O)cc5[C@@]3(CCN4CC3CCCCC3)C2)N1 [Compound 27, (4bR,4′S,8aS,9R)-11-(cyclohexylmethyl)-3,8a-dihydroxy-5,7,8,8a,9,10-hexahydrospiro[9,4b-(epiminoethano)phenanthrene-6,4′-imidazolidine]-2′,5′-dione]
- EC50 [1]: 2080 ± 406 nM
- Emax [1]: 33.3 ± 3.53%
- EC50 [2]: 12800 ± 3860 nM
- Emax [2]: 21.3 ± 1.86%

Structure (SMILES): N#CCN1C(=O)NC(=O)[C@@]12CC[C@@]1(O)[C@H]3Cc4ccc(O)cc4[C@@]1(CCN3CC1CC1)C2 [Compound 68, 2-((4bR,4′S,8aS,9R)-11-(cyclopropylmethyl)-3,8a-dihydroxy-2,5-dioxo-5,7,8,8a,9,10-hexahydrospiro[9,4b-(epiminoethano)phenanthrene-6,4′-imidazolidin]-3′-yl)acetonitrile]
- EC50 [1]: 7.06 ± 1.53 nM
- Emax [1]: 108 ± 6.89%
- EC50 [2]: 5.63 ± 1.74 nM
- Emax [2]: 16 ± 1.15%

Structure (SMILES): O=C1NC(=O)[C@@]2(CC[C@@]3(O)[C@H]4Cc5ccc(O)cc5[C@@]3(CCN4CCCc3ccccc3)C2)N1 [Compound 36, (4bR,4′S,8aS,9R)-3,8a-dihydroxy-11-(3-phenylpropyl)-5,7,8,8a,9,10-hexahydrospiro[9,4b-(epiminoethano)phenanthrene-6,4′-imidazolidine]-2′,5′-dione]
- EC50 [1]: 2500 ± 277 nM
- Emax [1]: 84.3 ± 2.6%
- EC50 [2]: 442 ± 21.2 nM
- Emax [2]: 77.7 ± 3.53%

Structure (SMILES): O=C1NC(=O)[C@@]2(CC[C@@]3(O)[C@H]4Cc5ccc(O)cc5[C@@]3(CCN4CCF)C2)N1 [Compound 30]
- EC50 [1]: 38.2 ± 12 nM
- Emax [1]: 99.7 ± 1.67%
- EC50 [2]: 102 ± 30.2 nM
- Emax [2]: 56.7 ± 4.33%

Structure (SMILES): COc1ccc2c(c1)[C@]13CCN(CC(F)(F)F)[C@H](C2)[C@]1(O)CC[C@@]1(C3)NC(=O)NC1=O [Compound 13, (4bR,4′S,8aS,9R)-8a-hydroxy-3-methoxy-11-(2,2,2-trifluoroethyl)-5,7,8,8a,9,10-hexahydrospiro[9,4b-(epiminoethano)phenanthrene-6,4′-imidazolidine]-2′,5′-dione]
- EC50 [1]: > 20000 nM
- Emax [1]: 65 ± 8.74%
- EC50 [2]: > 20000 nM
- Emax [2]: 10%
